Source: the supplement of paper PMC10307832

What was measured:
Test in all cases: relative viability (nuclei count vs DMSO), 5 days (fraction); higher = more cells survive
KN-93 + Bortezomib = compound: CN(C/C=C/C1=CC=C(C=C1)Cl)CC2=CC=CC=C2N(CCO)S(=O)(=O)C3=CC=C(C=C3)OC [KN-93] + CC(C)C[C@H](NC(=O)[C@H](Cc1ccccc1)NC(=O)c1cnccn1)B(O)O [Bortezomib] (partner 0.002 µM)
Method in brief: (§1)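 Relative viability divides the nuclei count in treated wells by that in vehicle wells. Lung cancer cell lines were seeded in 1536-well plates, dosed by pin tool the next day, and fixed and stained after 5 days in one step with final 0.05% Triton X-100, 1% formaldehyde and 1 ug/ml Hoechst. Dosing was a single drug or a fixed anchor-drug dose plus five library-drug doses (not always all listed) in √10 steps, and values are medians of duplicate plates imaged at 4×.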

KN-93 + OSI-027 = compound: CN(C/C=C/C1=CC=C(C=C1)Cl)CC2=CC=CC=C2N(CCO)S(=O)(=O)C3=CC=C(C=C3)OC [KN-93] + COc1cccc2cc(-c3nc([C@H]4CC[C@H](C(=O)O)CC4)n4ncnc(N)c34)[nH]c12 [OSI-027] (partner 0.5 µM)
Method in brief: as §1

KN-93 + Crizotinib = compound: CN(C/C=C/C1=CC=C(C=C1)Cl)CC2=CC=CC=C2N(CCO)S(=O)(=O)C3=CC=C(C=C3)OC [KN-93] + C[C@@H](Oc1cc(-c2cnn(C3CCNCC3)c2)cnc1N)c1c(Cl)ccc(F)c1Cl [Crizotinib] (partner 1 µM)
Method in brief: as §1

KN-93 + Decitabine = compound: CN(C/C=C/C1=CC=C(C=C1)Cl)CC2=CC=CC=C2N(CCO)S(=O)(=O)C3=CC=C(C=C3)OC [KN-93] + Nc1ncn([C@H]2C[C@H](O)[C@@H](CO)O2)c(=O)n1 [Decitabine] (partner 2 µM)
Method in brief: as §1

KN-93 + Pemetrexed = compound: CN(C/C=C/C1=CC=C(C=C1)Cl)CC2=CC=CC=C2N(CCO)S(=O)(=O)C3=CC=C(C=C3)OC [KN-93] + Nc1nc2[nH]cc(CCc3ccc(C(=O)N[C@@H](CCC(=O)O)C(=O)O)cc3)c2c(=O)[nH]1 [Pemetrexed] (partner 0.2 µM)
Method in brief: as §1

NCI-H727
relative viability (KN-93 + Bortezomib; first compound 0.08 µM): 0.66 | relative viability (KN-93 + Bortezomib; first compound 0.253 µM): 0.853 | relative viability (KN-93 + Bortezomib; first compound 2.53 µM): 0.785 | relative viability (KN-93 + Bortezomib; first compound 8 µM): 0.391 | relative viability (KN-93 + OSI-027; first compound 0.08 µM): 0.644 | relative viability (KN-93 + OSI-027; first compound 0.253 µM): 0.512 | relative viability (KN-93 + OSI-027; first compound 2.53 µM): 0.486 | relative viability (KN-93 + OSI-027; first compound 8 µM): 0.337 | relative viability (KN-93 + Crizotinib; first compound 0.08 µM): 0.667 | relative viability (KN-93 + Crizotinib; first compound 0.253 µM): 1 | relative viability (KN-93 + Crizotinib; first compound 2.53 µM): 0.637 | relative viability (KN-93 + Crizotinib; first compound 8 µM): 0.429 | relative viability (KN-93 + Decitabine; first compound 0.08 µM): 0.795 | relative viability (KN-93 + Decitabine; first compound 2.53 µM): 0.816 | relative viability (KN-93 + Decitabine; first compound 8 µM): 0.827

NCI-H1395
relative viability (KN-93 + OSI-027; first compound 0.08 µM): 0.702 | relative viability (KN-93 + OSI-027; first compound 0.253 µM): 0.666 | relative viability (KN-93 + OSI-027; first compound 2.53 µM): 0.707 | relative viability (KN-93 + OSI-027; first compound 8 µM): 0.469 | relative viability (KN-93 + Pemetrexed; first compound 0.08 µM): 0.972 | relative viability (KN-93 + Pemetrexed; first compound 0.253 µM): 0.926 | relative viability (KN-93 + Pemetrexed; first compound 2.53 µM): 0.86 | relative viability (KN-93 + Pemetrexed; first compound 8 µM): 0.489 | relative viability (KN-93 + Decitabine; first compound 0.08 µM): 0.713 | relative viability (KN-93 + Decitabine; first compound 0.253 µM): 0.739 | relative viability (KN-93 + Decitabine; first compound 2.53 µM): 0.745 | relative viability (KN-93 + Decitabine; first compound 8 µM): 0.615

NCI-H1563
relative viability (KN-93 + Bortezomib; first compound 0.08 µM): 1 | relative viability (KN-93 + Bortezomib; first compound 0.253 µM): 0.884 | relative viability (KN-93 + Bortezomib; first compound 2.53 µM): 0.778 | relative viability (KN-93 + Bortezomib; first compound 8 µM): 0.675 | relative viability (KN-93 + OSI-027; first compound 0.08 µM): 0.841 | relative viability (KN-93 + OSI-027; first compound 0.253 µM): 0.789 | relative viability (KN-93 + OSI-027; first compound 2.53 µM): 0.745 | relative viability (KN-93 + OSI-027; first compound 8 µM): 0.566 | relative viability (KN-93 + Crizotinib; first compound 0.08 µM): 0.875 | relative viability (KN-93 + Crizotinib; first compound 0.253 µM): 0.845 | relative viability (KN-93 + Crizotinib; first compound 2.53 µM): 0.643 | relative viability (KN-93 + Crizotinib; first compound 8 µM): 0.601 | relative viability (KN-93 + Pemetrexed; first compound 0.08 µM): 0.759 | relative viability (KN-93 + Pemetrexed; first compound 0.253 µM): 0.822 | relative viability (KN-93 + Pemetrexed; first compound 2.53 µM): 0.799 | relative viability (KN-93 + Pemetrexed; first compound 8 µM): 0.597

NCI-H1703
relative viability (KN-93 + Bortezomib; first compound 0.08 µM): 0.381 | relative viability (KN-93 + Bortezomib; first compound 0.253 µM): 0.302 | relative viability (KN-93 + Bortezomib; first compound 2.53 µM): 0.418 | relative viability (KN-93 + Bortezomib; first compound 8 µM): 0.166 | relative viability (KN-93 + Crizotinib; first compound 0.08 µM): 0.677 | relative viability (KN-93 + Crizotinib; first compound 0.253 µM): 1.03 | relative viability (KN-93 + Crizotinib; first compound 2.53 µM): 0.911 | relative viability (KN-93 + Crizotinib; first compound 8 µM): 0.225

NCI-H1793
relative viability (KN-93 + OSI-027; first compound 0.08 µM): 0.242 | relative viability (KN-93 + OSI-027; first compound 0.253 µM): 0.245 | relative viability (KN-93 + OSI-027; first compound 2.53 µM): 0.261 | relative viability (KN-93 + OSI-027; first compound 8 µM): 0.152 | relative viability (KN-93 + Pemetrexed; first compound 0.08 µM): 0.97 | relative viability (KN-93 + Pemetrexed; first compound 0.253 µM): 0.899 | relative viability (KN-93 + Pemetrexed; first compound 2.53 µM): 1.1 | relative viability (KN-93 + Pemetrexed; first compound 8 µM): 0.528 | relative viability (KN-93 + Decitabine; first compound 0.08 µM): 0.595 | relative viability (KN-93 + Decitabine; first compound 0.253 µM): 0.494 | relative viability (KN-93 + Decitabine; first compound 2.53 µM): 0.465 | relative viability (KN-93 + Decitabine; first compound 8 µM): 0.43

NCI-H1944
relative viability (KN-93 + OSI-027; first compound 0.08 µM): 0.403 | relative viability (KN-93 + OSI-027; first compound 0.253 µM): 0.376 | relative viability (KN-93 + OSI-027; first compound 2.53 µM): 0.383 | relative viability (KN-93 + OSI-027; first compound 8 µM): 0.31 | relative viability (KN-93 + Crizotinib; first compound 0.08 µM): 1.24 | relative viability (KN-93 + Crizotinib; first compound 0.253 µM): 1.24 | relative viability (KN-93 + Crizotinib; first compound 2.53 µM): 1.18 | relative viability (KN-93 + Crizotinib; first compound 8 µM): 0.953 | relative viability (KN-93 + Pemetrexed; first compound 0.08 µM): 0.599 | relative viability (KN-93 + Pemetrexed; first compound 0.253 µM): 0.598 | relative viability (KN-93 + Pemetrexed; first compound 2.53 µM): 0.545 | relative viability (KN-93 + Pemetrexed; first compound 8 µM): 0.57 | relative viability (KN-93 + Decitabine; first compound 0.08 µM): 0.45 | relative viability (KN-93 + Decitabine; first compound 0.253 µM): 0.414 | relative viability (KN-93 + Decitabine; first compound 2.53 µM): 0.413 | relative viability (KN-93 + Decitabine; first compound 8 µM): 0.395

NCI-H2170
relative viability (KN-93 + OSI-027; first compound 0.08 µM): 0.713 | relative viability (KN-93 + OSI-027; first compound 0.253 µM): 0.712 | relative viability (KN-93 + OSI-027; first compound 2.53 µM): 0.728 | relative viability (KN-93 + OSI-027; first compound 8 µM): 0.567 | relative viability (KN-93 + Crizotinib; first compound 0.08 µM): 1.13 | relative viability (KN-93 + Crizotinib; first compound 0.253 µM): 1.66 | relative viability (KN-93 + Crizotinib; first compound 2.53 µM): 1.42 | relative viability (KN-93 + Crizotinib; first compound 8 µM): 0.931 | relative viability (KN-93 + Pemetrexed; first compound 0.08 µM): 0.268 | relative viability (KN-93 + Pemetrexed; first compound 0.253 µM): 0.302 | relative viability (KN-93 + Pemetrexed; first compound 2.53 µM): 0.276 | relative viability (KN-93 + Pemetrexed; first compound 8 µM): 0.252 | relative viability (KN-93 + Decitabine; first compound 0.08 µM): 0.468 | relative viability (KN-93 + Decitabine; first compound 0.253 µM): 0.501 | relative viability (KN-93 + Decitabine; first compound 2.53 µM): 0.49 | relative viability (KN-93 + Decitabine; first compound 8 µM): 0.436

NCI-H2228
relative viability (KN-93 + Bortezomib; first compound 0.08 µM): 1.01 | relative viability (KN-93 + Bortezomib; first compound 0.253 µM): 1.18 | relative viability (KN-93 + Bortezomib; first compound 2.53 µM): 1.14 | relative viability (KN-93 + Bortezomib; first compound 8 µM): 0.817 | relative viability (KN-93 + OSI-027; first compound 0.08 µM): 0.55 | relative viability (KN-93 + OSI-027; first compound 0.253 µM): 0.443 | relative viability (KN-93 + OSI-027; first compound 2.53 µM): 0.567 | relative viability (KN-93 + OSI-027; first compound 8 µM): 0.237 | relative viability (KN-93 + Crizotinib; first compound 0.08 µM): 0.445 | relative viability (KN-93 + Crizotinib; first compound 0.253 µM): 0.48 | relative viability (KN-93 + Crizotinib; first compound 2.53 µM): 0.526 | relative viability (KN-93 + Crizotinib; first compound 8 µM): 0.248 | relative viability (KN-93 + Pemetrexed; first compound 0.08 µM): 0.407 | relative viability (KN-93 + Pemetrexed; first compound 0.253 µM): 0.383 | relative viability (KN-93 + Pemetrexed; first compound 2.53 µM): 0.353 | relative viability (KN-93 + Pemetrexed; first compound 8 µM): 0.252

NCI-H2342
relative viability (KN-93 + OSI-027; first compound 0.08 µM): 0.587 | relative viability (KN-93 + OSI-027; first compound 0.253 µM): 0.62 | relative viability (KN-93 + OSI-027; first compound 2.53 µM): 0.625 | relative viability (KN-93 + OSI-027; first compound 8 µM): 0.582 | relative viability (KN-93 + Pemetrexed; first compound 0.08 µM): 0.735 | relative viability (KN-93 + Pemetrexed; first compound 0.253 µM): 0.679 | relative viability (KN-93 + Pemetrexed; first compound 2.53 µM): 0.859 | relative viability (KN-93 + Pemetrexed; first compound 8 µM): 0.717 | relative viability (KN-93 + Decitabine; first compound 0.08 µM): 0.675 | relative viability (KN-93 + Decitabine; first compound 0.253 µM): 0.685 | relative viability (KN-93 + Decitabine; first compound 2.53 µM): 0.757 | relative viability (KN-93 + Decitabine; first compound 8 µM): 0.77

SK-MES-1
relative viability (KN-93 + OSI-027; first compound 0.08 µM): 0.517 | relative viability (KN-93 + OSI-027; first compound 0.253 µM): 0.547 | relative viability (KN-93 + OSI-027; first compound 2.53 µM): 0.605 | relative viability (KN-93 + OSI-027; first compound 8 µM): 0.415 | relative viability (KN-93 + Crizotinib; first compound 0.08 µM): 1.05 | relative viability (KN-93 + Crizotinib; first compound 0.253 µM): 0.979 | relative viability (KN-93 + Crizotinib; first compound 2.53 µM): 1.27 | relative viability (KN-93 + Crizotinib; first compound 8 µM): 0.8 | relative viability (KN-93 + Pemetrexed; first compound 0.08 µM): 1.03 | relative viability (KN-93 + Pemetrexed; first compound 0.253 µM): 0.945 | relative viability (KN-93 + Pemetrexed; first compound 2.53 µM): 1.05 | relative viability (KN-93 + Pemetrexed; first compound 8 µM): 0.806 | relative viability (KN-93 + Decitabine; first compound 0.08 µM): 0.389 | relative viability (KN-93 + Decitabine; first compound 0.253 µM): 0.357 | relative viability (KN-93 + Decitabine; first compound 2.53 µM): 0.371 | relative viability (KN-93 + Decitabine; first compound 8 µM): 0.355

SW 900
relative viability (KN-93 + OSI-027; first compound 0.08 µM): 0.571 | relative viability (KN-93 + OSI-027; first compound 0.253 µM): 0.438 | relative viability (KN-93 + OSI-027; first compound 2.53 µM): 0.624 | relative viability (KN-93 + OSI-027; first compound 8 µM): 0.411 | relative viability (KN-93 + Pemetrexed; first compound 0.08 µM): 0.522 | relative viability (KN-93 + Pemetrexed; first compound 0.253 µM): 0.517 | relative viability (KN-93 + Pemetrexed; first compound 2.53 µM): 0.491 | relative viability (KN-93 + Pemetrexed; first compound 8 µM): 0.47 | relative viability (KN-93 + Decitabine; first compound 0.08 µM): 0.443 | relative viability (KN-93 + Decitabine; first compound 0.253 µM): 0.427 | relative viability (KN-93 + Decitabine; first compound 2.53 µM): 0.452 | relative viability (KN-93 + Decitabine; first compound 8 µM): 0.517
